From US7524956B2, “Hemisynthetic method and new compounds” (Pharma Mar, S.A., priority 1999, dated 2009)

System: P-388 (suspension culture of a lymphoid neoplasm from DBA/2 mouse)
Test: Cytotoxic activity screening, P-388 cells
Type: cell-based
Conditions: P388, 72 h, three days of incubation, approximate IC50
Experimental: (§1) Cell Cultures. Cells were maintained in logarithmic phase of growth in Eagle's Minimum Essential Medium, with Earle's Balanced Salts, with 2.0 mM L-glutamine, with non-essential amino acids, without sodium bicarbonate (EMEM/neaa); supplemented with 10% Fetal Calf Serum (FCS), 10^−2 M sodium bicarbonate and 0.1 g/l penicillin-G+streptomycin sulfate.
(§2) A simple screening procedure has been carried out to determine and compare the antitumour activity of these compounds, using an adapted form of the method described by Bergeron et al (1984). The tumour cell line employed have been P-388 (suspension culture of a lymphoid neoplasm from DBA/2 mouse), A-549 (monolayer culture of a human lung carcinoma), HT-29 (monolayer culture of a human colon carcinoma) and MEL-28 (monolayer culture of a human melanoma).
P-388 cell were seeded into 16 mm wells at 1×10^4 cells per well in 1 ml aliquots of MEM 5FCS containing the indicated concentration of drug. A separate set of cultures without drug was seeded as control growth to ensure that cells remained in exponential phase of growth. All determinations were carried out in duplicate.

Question: `CCCC(=O)N[C@@H](C)C(=O)NC[C@H]1c2c(c(OC(C)=O)c(C)c3c2OCO3)CC2[C@H]3c4c(cc(C)c(OC)c4O)C[C@@H]([C@H](C#N)N21)N3C` (stereo partly drawn) was tested. Which IC50 did it give?
Answer: 0.001 µM

Question: How did the IC50 turn out when `COc1c(C)cc2c(c1O)[C@@H]1C3Cc4c(OC(C)=O)c(C)c5c(c4[C@H](CNC(=O)/C=C/c4ccccc4)N3[C@@H](C#N)[C@H](C2)N1C)OCO5` (stereo partly drawn) was run?
Answer: 0.0001 µM

Question: With `CCCCCCCCCC(=O)NC[C@H]1c2c(c(OC(C)=O)c(C)c3c2OCO3)CC2[C@H]3c4c(cc(C)c(OC)c4O)C[C@@H]([C@H](C#N)N21)N3C` (stereo partly drawn) as the molecule, how does the IC50 read?
Answer: 0.007 µM

System: HT-29 (monolayer culture of a human colon carcinoma)
Test: Cytotoxic activity screening, HT-29 cells
Type: cell-based
Conditions: HT-29, 72 h, three days of incubation, Crystal Violet, approximate IC50
Experimental: as §1, §2
(§3) A-549, HT-29 and MEL-28 were seeded into 16 mm wells at 2×10^4 cells per well in 1 ml aliquots of MEM 10FCS containing the indicated concentration of drug. A separate set of cultures without drug was seeded as control growth to ensure that cells remained in exponential phase of growth. All determinations were carried out in duplicate. After three days of incubation at 37° C., 10% CO2 in a 98% humid atmosphere, the wells were stained with 0.1% Crystal Violet. An approximately IC50 was determined by comparing the growth in wells with drug to the growth in wells control.

Question: For `CCCC(=O)N[C@@H](C)C(=O)NC[C@H]1c2c(c(OC(C)=O)c(C)c3c2OCO3)CC2[C@H]3c4c(cc(C)c(OC)c4O)C[C@@H]([C@H](C#N)N21)N3C` (stereo partly drawn), which IC50 is on record?
Answer: 0.0005 µM

Question: How did the IC50 turn out when `COc1c(C)cc2c(c1O)[C@@H]1C3Cc4c(OC(C)=O)c(C)c5c(c4[C@H](CNC(=O)/C=C/c4ccccc4)N3[C@@H](C#N)[C@H](C2)N1C)OCO5` (stereo partly drawn) was run?
Answer: 0.0001 µM

Question: How did the IC50 turn out when `CCCCCCCCCC(=O)NC[C@H]1c2c(c(OC(C)=O)c(C)c3c2OCO3)CC2[C@H]3c4c(cc(C)c(OC)c4O)C[C@@H]([C@H](C#N)N21)N3C` (stereo partly drawn) was run?
Answer: 0.007 µM

System: DU-145
Test: Cytotoxic activity screening, DU-145 cells
Type: cell-based
Conditions: Homo sapiens, DU-145, DU-145 cells

Question: For `CCCC(=O)N[C@@H](C)C(=O)NC[C@H]1c2c(c(OC(C)=O)c(C)c3c2OCO3)CC2[C@H]3c4c(cc(C)c(OC)c4O)C[C@@H]([C@H](C#N)N21)N3C` (stereo partly drawn), which IC50 is on record?
Answer: 0.001 µM

Question: How did the IC50 turn out when `COc1c(C)cc2c(c1O)[C@@H]1C3Cc4c(OC(C)=O)c(C)c5c(c4[C@H](CNC(=O)/C=C/c4ccccc4)N3[C@@H](C#N)[C@H](C2)N1C)OCO5` (stereo partly drawn) was run?
Answer: 0.0001 µM

Question: With `CCCCCCCCCC(=O)NC[C@H]1c2c(c(OC(C)=O)c(C)c3c2OCO3)CC2[C@H]3c4c(cc(C)c(OC)c4O)C[C@@H]([C@H](C#N)N21)N3C` (stereo partly drawn) as the molecule, how does the IC50 read?
Answer: 0.007 µM

System: A-549 (monolayer culture of a human lung carcinoma)
Test: Cytotoxic activity screening, A-549 cells
Type: cell-based
Conditions: A549, 72 h, three days of incubation, Crystal Violet, approximate IC50
Experimental: as §1, §2, §3

Question: Which IC50 does the source give for `CCCC(=O)N[C@@H](C)C(=O)NC[C@H]1c2c(c(OC(C)=O)c(C)c3c2OCO3)CC2[C@H]3c4c(cc(C)c(OC)c4O)C[C@@H]([C@H](C#N)N21)N3C` (stereo partly drawn) here?
Answer: 0.001 µM

Question: For `COc1c(C)cc2c(c1O)[C@@H]1C3Cc4c(OC(C)=O)c(C)c5c(c4[C@H](CNC(=O)/C=C/c4ccccc4)N3[C@@H](C#N)[C@H](C2)N1C)OCO5` (stereo partly drawn), which IC50 is on record?
Answer: 0.0001 µM

Question: `CCCCCCCCCC(=O)NC[C@H]1c2c(c(OC(C)=O)c(C)c3c2OCO3)CC2[C@H]3c4c(cc(C)c(OC)c4O)C[C@@H]([C@H](C#N)N21)N3C` (stereo partly drawn) was tested. Which IC50 did it give?
Answer: 0.007 µM

System: MEL-28 (monolayer culture of a human melanoma)
Test: Cytotoxic activity screening, MEL-28 cells
Type: cell-based
Conditions: SK-MEL-28, 72 h, three days of incubation, Crystal Violet, approximate IC50
Experimental: as §1, §2, §3

Question: With `CCCC(=O)N[C@@H](C)C(=O)NC[C@H]1c2c(c(OC(C)=O)c(C)c3c2OCO3)CC2[C@H]3c4c(cc(C)c(OC)c4O)C[C@@H]([C@H](C#N)N21)N3C` (stereo partly drawn) as the molecule, how does the IC50 read?
Answer: 0.0005 µM

Question: For `COc1c(C)cc2c(c1O)[C@@H]1C3Cc4c(OC(C)=O)c(C)c5c(c4[C@H](CNC(=O)/C=C/c4ccccc4)N3[C@@H](C#N)[C@H](C2)N1C)OCO5` (stereo partly drawn), which IC50 is on record?
Answer: 0.0001 µM

Question: For `CCCCCCCCCC(=O)NC[C@H]1c2c(c(OC(C)=O)c(C)c3c2OCO3)CC2[C@H]3c4c(cc(C)c(OC)c4O)C[C@@H]([C@H](C#N)N21)N3C` (stereo partly drawn), which IC50 is on record?
Answer: 0.007 µM
